Test results as given in the supplement of paper PMC11451515.

Experiments:
Details in all cases: 48 h
NOMO1 [1] = test: AUC of viability dose-response curve (% viability x log10 dose units); higher = less sensitive
Method in brief: (§1)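 Leukemia cells adapted to each medium (500 or 1000 cells/well, 1536-well plates) were exposed to library compounds in DMSO for 48 h at 37°C at 11 threefold doses, 47 μM to 0.79 nM. Luminescence by CellTiter-Glo One was normalised per plate to DMSO and cell-free wells, then fitted with a four-parameter log-logistic curve on log10 dose. Curves above full viability were scaled and quality-control failures removed before area under the curve was integrated by trapezoidal rule.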

P12-Ichikawa [2] = test: as above
Method in brief: as §1

SEM cells [3] = test: as above
Method in brief: as §1

NOMO1 [4] = test: cell viability relative to DMSO control; higher = less cytotoxic
Method in brief: (§2)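 Viability values are per-plate percentages of DMSO wells, with background from cell-free wells. Library compounds in DMSO were pin-dosed, in an 11-point threefold series from 47 μM to 0.79 nM, onto NOMO1 or SEM (500 cells/well) or P12-Ichikawa (1000 cells/well) leukemia cells in 1536-well plates (5 μl). Those cells had been adapted for at least four passages in each medium, and CellTiter-Glo One luminescence was read after 48 h at 37°C.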

P12-Ichikawa [5] = test: as above
Method in brief: as §2

SEM cells [6] = test: as above
Method in brief: as §2

Cc1c(Cn2c(C)nc3c(C(=O)O)cc(N4CCOCC4)cc32)cccc1C(F)(F)F
AUC of viability dose-response curve
Details | NOMO1 [1] | P12-Ichikawa [2] | SEM cells [3]
HPLM + 10% dialyzed FBS | 448 | 472 | 469
RPMI 5 mM glucose + 10% FBS | 474 | 463 | 463
RPMI 5 mM glucose + 10% dialyzed FBS | 465 | 470 | 455

cell viability [%]
Details | NOMO1 [4] | P12-Ichikawa [5] | SEM cells [6]
HPLM + 10% dialyzed FBS, 0.000781 µM | 98.3 | 102 | 84.5
HPLM + 10% dialyzed FBS, 0.00234 µM | 114 | 109 | 101
HPLM + 10% dialyzed FBS, 0.00702 µM | 121 | 107 | 109
HPLM + 10% dialyzed FBS, 0.0211 µM | 125 | 116 | 111
HPLM + 10% dialyzed FBS, 0.0632 µM | 115 | 115 | 101
HPLM + 10% dialyzed FBS, 0.19 µM | 120 | 108 | 97.1
HPLM + 10% dialyzed FBS, 0.569 µM | 106 | 120 | 115
HPLM + 10% dialyzed FBS, 1.71 µM | 121 | 106 | 109
HPLM + 10% dialyzed FBS, 5.12 µM | 105 | 104 | 103
HPLM + 10% dialyzed FBS, 15.4 µM | 95.8 | 110 | 117
HPLM + 10% dialyzed FBS, 46.1 µM | 16.3 | 87.8 | 103
RPMI 5 mM glucose + 10% FBS, 0.000781 µM | 87.2 | 98.6 | 93.2
RPMI 5 mM glucose + 10% FBS, 0.00234 µM | 95.4 | 100 | 115
RPMI 5 mM glucose + 10% FBS, 0.00702 µM | 101 | 108 | 102
RPMI 5 mM glucose + 10% FBS, 0.0211 µM | 108 | 115 | 106
RPMI 5 mM glucose + 10% FBS, 0.0632 µM | 103 | 111 | 103
RPMI 5 mM glucose + 10% FBS, 0.19 µM | 97.1 | 102 | 112
RPMI 5 mM glucose + 10% FBS, 0.569 µM | 108 | 113 | 119
RPMI 5 mM glucose + 10% FBS, 1.71 µM | 116 | 109 | 114
RPMI 5 mM glucose + 10% FBS, 5.12 µM | 112 | 99.5 | 107
RPMI 5 mM glucose + 10% FBS, 15.4 µM | 101 | 89.2 | 89.1
RPMI 5 mM glucose + 10% FBS, 46.1 µM | 75 | 94.2 | 88.5
RPMI 5 mM glucose + 10% dialyzed FBS, 0.000781 µM | 89.2 | 92.9 | 94.1
RPMI 5 mM glucose + 10% dialyzed FBS, 0.00234 µM | 112 | 112 | 105
RPMI 5 mM glucose + 10% dialyzed FBS, 0.00702 µM | 105 | 109 | 100
RPMI 5 mM glucose + 10% dialyzed FBS, 0.0211 µM | 117 | 122 | 109
RPMI 5 mM glucose + 10% dialyzed FBS, 0.0632 µM | 98.9 | 115 | 112
RPMI 5 mM glucose + 10% dialyzed FBS, 0.19 µM | 101 | 106 | 95.5
RPMI 5 mM glucose + 10% dialyzed FBS, 0.569 µM | 111 | 119 | 103
RPMI 5 mM glucose + 10% dialyzed FBS, 1.71 µM | 112 | 111 | 95.5
RPMI 5 mM glucose + 10% dialyzed FBS, 5.12 µM | 96.6 | 96.9 | 90.1
RPMI 5 mM glucose + 10% dialyzed FBS, 15.4 µM | 102 | 107 | 92.3
RPMI 5 mM glucose + 10% dialyzed FBS, 46.1 µM | 85.8 | 100 | 79.8
